Results published in patent US10632101B2, “Methods and compositions for supporting endogenous systems related to life span” (USANA Health Sciences, Inc., priority 2016, dated 2020).

Experiments:
[1] = target: T1, mTOR (Homo sapiens, UniProt P42345); details: cited from earlier work; for mTOR inhibition: applied to isolated cells in culture
T1 construct: host or cells: isolated cells in culture (not specified)

[2] = system: C. elegans strain CB5586; test: Phenotypic lifespan screening in C. elegans; type: in vivo; details: for mean lifespan: DMSO control 13.23; for Statistically Significant Result: 10 mg/ml compared to DMSO control; for effect on chronological lifespan: 0.1 and 10 mg/ml tested
Experimental: Dilutions of the test formulations were applied to individual populations of C. elegans and the lifespan of each population was monitored. Any changes in the lifespan of an individual population compared to a control population were recorded and correlated to the respective test formulation (N356 or N357) and the respective dilution (0.1 mg/ml, 1 mg/ml, and 10 mg/ml).
The N256 and N357 formulations were each prepared as individual 100 mg/ml stock solutions in dimethyl sulfoxide (DMSO). Serial dilutions of each stock solution were then prepared at 0.1 mg/ml, 1 mg/ml, and 10 mg/ml in DMSO. Control solutions of DMSO only were also prepared. Synchronous aged adult populations of C. elegans strain CB5586 worms were prepared. The CB5586 strain comprises a pharyngeal GFP (green fluorescent protein) tag and a mutation in the bus-5 gene. The pharyngeal GFP tag allows for fluorescent images of the worm populations to be taken. The mutation in the bus-5 gene causes the loss of normal cuticle antigens that permits the cuticle of the worms to become permeable to the test formulations and allow direct uptake of the test formulations to avoid interaction of the test formulations with protective mechanisms of the gut channel. Each serial dilution of each test formulation was added to a separate population of the prepared worms. The control solutions were also added to separate populations of the prepared worms. The populations of the prepared worms were then maintained on standard nematode growth media (NGM) agar plates at 20° C. with sufficient food (Escherichia coli strain OP-50).
Each worm population was then monitored by fluorescent imaging to determine the number of living and dead worms as a function of time. The fluorescent imaging was analyzed by software that recognized and counted worms based on their fluorescent intensity compared to background fluorescence. […] The ability to distinguish between living and dead worms allowed the number of living worms and a cumulative number of dead worms to be monitored against time. Worm populations from a selection of fluorescent images were manually checked to verify that the software had accurately counted the number of living and dead worms.
The counts of the living and dead worms as a function of time were then analyzed for each of the worm populations and used to prepare Kaplan-Meier survival curves and associated statistics for each of the worm populations. […] The median lifespan is shown as the length of time after the last mitotic division that 50% of the test population remains viable when compared to the control population. The maximum lifespan extension is shown as the length of time after the last mitotic division that 5% of the test population remains viable when compared to the control population.
The counts of the living and dead worms as a function of time and the Kaplan-Meier survival curves and the associated statistics were then analyzed for each of the worm populations. The analysis included determining mean and median lifespan. The analysis included a non-parametric test, the Log-Rank test, which compares two survival functions for the overall lifespan assay and provides a reliable p-value summarizing the whole experiment. The analysis also included Fisher's Exact Test that calculated the significance of survival function comparisons at multiple specific time points throughout the experiment, rather than for the overall lifespan. The results of the analysis are shown below in Tables 10-17.
Phenotypic screening was carried out as described in EXAMPLE 2 for various individual compounds of the N357 formulation. […] Alpha lipoic acid was sourced from PureBulk™ USA as a racemic mix of R and S stereoisomers and was assigned a sample number of N198. Hesperidin was sourced from Sigma Aldrich at ≥80% purity and was assigned a sample number of N347. […]

[3] = system: human NF-κB; test: NF-κB reporter cell assay, antagonist mode; type: cell-based
[4] = target: T2, human PPARδ (Homo sapiens, UniProt Q03181); test: PPARδ reporter cell assay, agonist mode; type: cell-based
T2 construct: expressed in transfected cells; host or cells: CHO
T2 sequence (Q03181 211-439 limits assumed): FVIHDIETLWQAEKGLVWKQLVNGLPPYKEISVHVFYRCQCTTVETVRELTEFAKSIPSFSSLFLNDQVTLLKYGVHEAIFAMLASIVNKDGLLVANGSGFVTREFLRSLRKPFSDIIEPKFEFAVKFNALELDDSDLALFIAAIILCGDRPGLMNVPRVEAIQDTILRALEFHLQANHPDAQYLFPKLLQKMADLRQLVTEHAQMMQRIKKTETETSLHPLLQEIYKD

[5] = target: T3, human PPARγ (Homo sapiens, UniProt P37231); test: PPARγ reporter cell assay, agonist mode; type: cell-based
T3 construct: expressed in transfected cells; host or cells: CHO
T3 sequence (P37231 238-503 limits assumed): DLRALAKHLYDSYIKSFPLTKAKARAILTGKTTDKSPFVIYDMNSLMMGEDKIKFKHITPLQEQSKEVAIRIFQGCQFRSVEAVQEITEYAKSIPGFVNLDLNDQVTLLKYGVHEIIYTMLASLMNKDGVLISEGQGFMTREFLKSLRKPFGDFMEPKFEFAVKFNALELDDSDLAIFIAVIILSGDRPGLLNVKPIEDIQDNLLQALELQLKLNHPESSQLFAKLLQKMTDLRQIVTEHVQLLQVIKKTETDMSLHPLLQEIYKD

[6] = target: T4, human PPARα (Homo sapiens, UniProt Q07869); test: PPARα reporter cell assay, agonist mode; type: cell-based
T4 construct: expressed in transfected cells; host or cells: CHO
T4 sequence (Q07869 239-466 limits assumed): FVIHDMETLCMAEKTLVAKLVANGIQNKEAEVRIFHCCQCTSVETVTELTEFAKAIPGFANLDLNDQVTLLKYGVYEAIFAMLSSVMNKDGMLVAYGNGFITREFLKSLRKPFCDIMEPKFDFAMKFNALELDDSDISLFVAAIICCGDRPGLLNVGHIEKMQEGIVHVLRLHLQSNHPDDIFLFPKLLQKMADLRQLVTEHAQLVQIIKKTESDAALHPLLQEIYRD

SMILES: Cn1c(=O)c2c(ncn2C)n(C)c1=O [caffeine]
- mTOR inhibition [1]: inhibit mTOR
- mTOR inhibition, mitophagy and mitochondrial turnover [1]: inhibit mTOR, up-regulate mitophagy, and increase the rate of mitochondrial turnover

SMILES: COc1ccc([C@@H]2CC(=O)c3c(O)cc(O[C@@H]4O[C@H](CO[C@@H]5O[C@@H](C)[C@H](O)[C@@H](O)[C@H]5O)[C@@H](O)[C@H](O)[C@H]4O)cc3O2)cc1O [N347, Hesperidin]
- extension of lifespan (Kaplan-Meier figure) ([2]; 0.1 mg/ml): about 10%
- % Change in Mean Lifespan ([2]; 0.1 mg/ml compared to DMSO control): +10%
- mean lifespan ([2]; 0.1 mg/ml): 14.55 days
- Statistically Significant Result [2]: No statistical difference
- mean lifespan ([2]; 10 mg/ml): 14.19 days
- effect on chronological lifespan [2]: significant positive and dose-dependent increase of chronological lifespan

SMILES: O=c1c(O)c(-c2ccc(O)c(O)c2)oc2cc(O)cc(O)c12 [Quercetin, 2-(3,4-dihydroxyphenyl)-3,5,7-trihydroxy-4H-chromen-4-one]
- NF-κB % Inhibition ([3]; 0.84 μg/ml): −6%
- Statistically Significant Result [2]: No statistical difference
- effect on chronological lifespan [2]: significant negative effect on chronological lifespan

SMILES: COc1cc(/C=C/C(=O)CC(=O)/C=C/c2ccc(O)c(OC)c2)ccc1O [Curcumin, curcumin]
- PPARδ Fold-Activation ([4]; 0.007 μg/ml): 1.2
- PPARδ Fold-Activation ([4]; 0.022 μg/ml): 1.2
- PPARδ Fold-Activation ([4]; 0.067 μg/ml): 1.0
- PPARδ Fold-Activation ([4]; 0.20 μg/ml): 1.2
- PPARδ Fold-Activation ([4]; 0.60 μg/ml): 1.3
- PPARδ Fold-Activation ([4]; 1.81 μg/ml): 1.0
- NF-κB % Inhibition ([3]; 0.007 μg/ml): −10%
- NF-κB % Inhibition ([3]; 0.60 μg/ml): 30%
- PPARγ Fold-Activation ([5]; 0.007 μg/ml): 1.0
- PPARγ Fold-Activation ([5]; 0.022 μg/ml): 1.0
- PPARγ Fold-Activation ([5]; 0.067 μg/ml): 0.95
- PPARγ Fold-Activation ([5]; 0.20 μg/ml): 0.96
- PPARγ Fold-Activation ([5]; 0.60 μg/ml): 0.90
- PPARγ Fold-Activation ([5]; 1.81 μg/ml): 1.1
- PPARα Fold-Activation ([6]; 0.007 μg/ml): 1.3
- PPARα Fold-Activation ([6]; 0.022 μg/ml): 1.3
- PPARα Fold-Activation ([6]; 0.067 μg/ml): 1.3
- PPARα Fold-Activation ([6]; 0.20 μg/ml): 1.1
- PPARα Fold-Activation ([6]; 0.60 μg/ml): 1.0
- PPARα Fold-Activation ([6]; 1.81 μg/ml): 0.86
- mTOR inhibition [1]: inhibit mTOR
- mTOR inhibition, mitophagy and mitochondrial turnover [1]: inhibit mTOR, up-regulate mitophagy, and increase the rate of mitochondrial turnover

SMILES: O=C(O[C@@H]1Cc2c(O)cc(O)cc2O[C@@H]1c1cc(O)c(O)c(O)c1)c1cc(O)c(O)c(O)c1 [EGCG, epigallocatechin gallate]
- NF-κB % Inhibition ([3]; 0.033 μg/ml): 10%
- NF-κB % Inhibition ([3]; 0.098 μg/ml): 18%
- NF-κB % Inhibition ([3]; 0.30 μg/ml): 0.10%
- NF-κB % Inhibition ([3]; 0.89 μg/ml): 8.4%
- NF-κB % Inhibition ([3]; 2.67 μg/ml): −15%
- NF-κB % Inhibition ([3]; 8 μg/ml): −29%
- mTOR inhibition [1]: inhibit mTOR
- mTOR inhibition, mitophagy and mitochondrial turnover [1]: inhibit mTOR, up-regulate mitophagy, and increase the rate of mitochondrial turnover

SMILES: C[C@@H]1O[C@@H](OC[C@H]2O[C@@H](Oc3c(-c4ccc(O)c(O)c4)oc4cc(O)cc(O)c4c3=O)[C@H](O)[C@@H](O)[C@@H]2O)[C@H](O)[C@H](O)[C@H]1O [Rutin, 2-(3,4-dihydroxyphenyl)-5,7-dihydroxy-3-[α-L-rhamnopyranosyl-(1→6)-β-D-glucopyranosyloxy]-4H-chromen-4-one]
- NF-κB % Inhibition ([3]; 1.11 μg/ml): 10%

SMILES: COc1ccc([C@@H]2CC(=O)c3c(O)cc(O)cc3O2)cc1O [Hesperetin, (S)-2,3-Dihydro-5,7-dihydroxy-2-(3-hydroxy-4-methoxyphenyl)-4H-1-benzopyran-4-one]
- PPARδ Fold-Activation ([4]; 0.043 μg/ml): 1.1
- PPARδ Fold-Activation ([4]; 0.389 μg/ml): 1.0
- PPARδ Fold-Activation ([4]; 1.167 μg/ml): 1.1
- PPARδ Fold-Activation ([4]; 3.5 μg/ml): 0.89
- PPARγ Fold-Activation ([5]; 0.043 μg/ml): 1.0
- PPARγ Fold-Activation ([5]; 0.389 μg/ml): 1.1
- PPARγ Fold-Activation ([5]; 1.167 μg/ml): 1.1
- PPARγ Fold-Activation ([5]; 3.5 μg/ml): 0.55
- PPARα Fold-Activation ([6]; 0.043 μg/ml): 1.4
- PPARα Fold-Activation ([6]; 0.389 μg/ml): 1.2
- PPARα Fold-Activation ([6]; 1.167 μg/ml): 1.0
- PPARα Fold-Activation ([6]; 3.5 μg/ml): 0.79
